The text below walks through data of patent publication US20260053931A1, “MDM2 TARGETING PROTACS” (THE WISTAR INSTITUTE OF ANATOMY AND BIOLOGY, priority 2023, published 2026).

In one series the test system is non-cancerous cells. The experiment in a line: Western blot and MTT assay, non-cancerous cells. Background: In western blotting, separated proteins are transferred to a membrane and probed.
For the next series, the system named is Cal27. The experiment in a line: Cell death of other cancer cell lines: Cal27. Type of series: cell-based. The conditions noted are these: Homo sapiens, CAL-27; Cal27, Head & Neck. On the procedure: The PROTACs prepared herein were tested for their use in other cancer cell lines to determine activity in multiple different types of cancer.
Series [1] can be described thus: Mouse liver microsomal stability. The series is classed as in vitro ADME. The conditions noted are these: mouse liver microsomes, 0.5 μM compound. On the procedure: To translate cell-based activity to in vivo efficacy, the Mdm2 PROTACs were evaluated for metabolic stability and plasma compound levels after IP injection in the mouse. Mouse liver microsome stability was obtained for lead compounds (Alliance Pharma, Inc; Malvern PA) as a predictive measure for suitable exposure in a mouse pharmacokinetic study. In brief, test compounds (0.5 μM) are incubated with liver microsomes ([…]) and an NADPH-regenerating system (cofactor solution) and samples are taken at various timepoints, quenched with an acetonitrile solution containing an internal standard, then analyzed by LC-MS/MS. […] Mouse pharmacokinetic studies for YX-02-030 and YX-02-288 were completed. Mouse plasma levels were evaluated following intraperitoneal (10 mg/kg) administration. Plasma was collected at timepoints 0.25 h, 0.5 h, 1 h, 2 h, 4 h and 6 h after Mdm2 PROTAC injection. Plasma was deproteinized and analyzed for compound using LC-MS/MS methods. Three mice were used for each time point and one control animal (Alliance Pharma Inc, Malvern PA).
(Microsomes from liver hold many membrane-bound enzymes, among them those of drug oxidation.)

The test system of series [2] is TNBC patient mammospheres. Nature of the series: Patient TNBC 3D mammosphere cultures. The series is classed as cell-based, human. On the procedure:
FIGS. 27A-27E show TP53 mutant TNBC patient-derived explants undergo apoptosis following treatment with the MDM2-PROTAC YX-02-030. A. TP53 sequenced in five fresh TNBC patient samples and used in explant and 3D mammosphere cultures. B-C. TNBC patient-derived explants were treated with the compounds indicated and Western blotting (B) and immunohistochemistry (IHC) of FFPE sections for cleaved Caspase-3 (C, n=3 paired patient samples) were performed. Representative images of H&E and cleaved Caspase-3 (CC3) IHC shown, including normal breast epithelium treated with MDM2-PROTAC YX-02-030; scale bar 300 m. D-E. Mammosphere cultures were established from TNBC patient samples, treated with the indicated compounds, and live-cell detection of Caspase-3/7 activity (D, quadruplicate) and mammosphere survival/ATP production (E, quadruplicate) were measured.
For three of the patient TNBC tumor samples there was enough tissue to also establish 3D mammosphere cultures, and for one of these patients, normal breast epithelial tissue was also received that generated loose cell clusters.

A short description of series [3]: In vivo toxicity, C57Bl/6 mice. Also noted: species or system mouse. On the procedure:
FIGS. 24A-24E show no overt toxicities from the MDM2-PROTAC YX-02-030 observed in vivo. A-B. A. After C57Bl/6 immunocompetent mice received 15 consecutive intraperitoneal (IP) injections of MDM2-PROTAC (50 mg/kg) or vehicle control treatments, complete blood counts were determined. B. H&E sections of formalin-fixed paraffin-embedded tissues evaluated (B, BM-bone marrow). C-E, Nude mice with subcutaneous tumors of MDA-MB-231 and MDA-MB-436 TNBC cells were administered (IP) MDM2-PROTAC YX-02-030, RG7112D, or vehicle control (50 mg/kg) for 14 consecutive days. C. Mouse weight was measured daily throughout the course of treatment. D. Complete blood counts were determined following 13 consecutive treatments. E. Sections of formalin-fixed paraffin-embedded tissues from mice at time of sacrifice were H&E stained and evaluated. Representative images are shown and scale bars are 200 m (spleen) and 300 μm (bone marrow and intestine). Mean±SD (A, C, D).
Prior to testing YX-02-030 tumors in vivo, mouse liver microsome and pharmacokinetic (PK) studies were performed to determine its stability in vivo. […] Due to its stability in vivo, the effectiveness of YX-02-030 was then evaluated at killing TNBC tumors in mice. […] The toxicity of YX-2-228 was analyzed as compared to both the vehicle and YX-2-30. […]

For series [4], the system named is MDA-MB-231 and MDA-MB-436 TNBC xenografts. Nature of the series: TNBC xenografts in nude mice. The series is classed as in vivo, mouse. On the procedure:
A-G. MDA-MB-231 and MDA-MB-436 cells were injected (subcutaneous) into one flank of nude mice and allowed to form palpable tumors (approximately 80 mm^3). Mice (randomized into tumor-size matched groups) were treated (intraperitoneal injection) with MDM2-PROTAC YX-02-030, RG7112D, or vehicle control at 50 mg/kg once daily for 14 days (treatment start, green arrow and stop, red arrow). Kaplan-Meier survival analysis (A) and tumor volume (B; individual, left and averaged, right) were evaluated overtime. C-G, After 72 hr of treatment, tumors (n=3/group; −, vehicle control) were harvested and protein expression evaluated by Western blotting (C), Annexin-V positivity (D), Caspase-3 activity (E), apoptotic subG1 DNA content (F), and viability by Trypan Blue dye exclusion (G). Mean±SD (B (right), D-G). Log-rank tests for A, and longitudinal tumor growth analysis using 2-way ANOVA with Bonferroni correction for B; P-values indicated. *P<0.0021 for D, *P<0.0001 for E, *P<0.0147 for F, and *P<0.0014 for G were determined using unpaired two-tailed t-tests, comparing PROTAC to vehicle control.
Prior to testing YX-02-030 tumors in vivo, mouse liver microsome and pharmacokinetic (PK) studies were performed to determine its stability in vivo. […] Due to its stability in vivo, the effectiveness of YX-02-030 was then evaluated at killing TNBC tumors in mice. Xenografts of MDA-MB-231 and MDA-MB-436 TNBC cells grew to ˜80 mm^3, and then tumor size-matched mice were treated with YX-02-030, RG7112D control compound, or vehicle control. […] To confirm YX-02-030 was hitting its target (MDM2) in the TNBC tumors, tumors were harvested from a cohort of mice after 72 hours of YX-02-030 treatment. […] The toxicity of YX-2-228 was analyzed as compared to both the vehicle and YX-2-30. (FIGS. 25A & 25B).

[5] abbreviates: mammospheres from three patient tumors.
Where [6] appears, read: 50 mg/kg IP once daily for 14 days, compared to control mice.

The structures appear in SMILES notation.

Usually IC50 stands for the midpoint of a concentration-inhibition curve. By half-life is commonly meant the time needed for the level to fall by half in the phase considered. The low end stands for rapid decline, the high end for slow decline.

`CCOc1cc(C(C)(C)C)ccc1C1=N[C@](C)(c2ccc(Cl)cc2)[C@](C)(c2ccc(Cl)cc2)N1C(=O)N1CCN(CC(=O)NCCOCCOCCOCC(=O)N[C@H](C(=O)N2C[C@H](O)C[C@H]2C(=O)NCc2ccc(-c3scnc3C)cc2)C(C)(C)C)CC1` (racemic) [YX-02-030]: in the series on non-cancerous cells, the “sensitivity of non-cancerous cells” value is “resistant”. Besides, the IC50 in the series on Cal27 turned out to be 2300 nM. For the same compound, in series [1], the half-life at 0.5 μM is 25.9 min. In series [2] (setting [5]), the Caspase-3/7 activity result is “significantly increased Caspase-3/7 activity” and the mammosphere survival entry was “reduced survival”. Moreover, the “effect on normal breast epithelial clusters” value in series [2] (normal breast epithelial tissue of one patient) is “remained largely unaffected”. Besides, in series [3] (C57Bl/6 mice and immune-deficient mice of the xenograft experiments, 50 mg/kg IP), the overt toxicity result is given as “no signs of overt toxicity”. In series [3] (C57Bl/6 mice, 30 mg/kg IP, 2× daily), the tolerability result is listed as “well tolerated”. In series [4] (setting [6]), the mouse survival entry is given as “significantly extended mouse survival” and the tumor volume result is reported as “decreased tumor volume”. In series [4] (nude mice, 50 mg/kg IP, 14 consecutive days), the mouse weight entry is “mouse weight was maintained”. For the same compound, the “MDM2 protein in tumors” value in series [4] (tumors harvested after 72 hours of treatment) is listed as “loss of MDM2 protein”.
